Test results published in ChEMBL document CHEMBL1122319, “Substituted (2-phenoxyphenyl)acetic acids with antiinflammatory activity. 1” (J Med Chem, 1983).

Assays:
Type in all cases: functional
Rattus norvegicus [1] = assay: Reduction in paw swelling at 100 mg/kg po dose in rat using adjuvant arthritis test.
Rattus norvegicus [2] = species: Rattus norvegicus; assay: Potency relative to [2-(2,4-Dichloro-phenoxy)-phenyl]-acetic acid in rat adjuvant arthritis test
Rattus norvegicus [3] = assay: Reduction in paw swelling at 100 mg/kg po dose in rat using adjuvant arthritis test; value is +10 indicates exacerbation of paw swelling.
Rattus norvegicus [4] = assay: Reduction in paw swelling at 100 mg/kg po dose in rat using adjuvant arthritis test; value is +14 indicates exacerbation of paw swelling.
Rattus norvegicus [5] = species: Rattus norvegicus; assay: Minimum ulcerogenic dose(MUD) of the compound.
Rattus norvegicus [6] = species: Rattus norvegicus; assay: Minimum ulcerogenic dose(MUD) of the compound;Value ranges from (400-800)

Row | SMILES | Reduction (Rattus norvegicus [1]) | Relative potency (Rattus norvegicus [2]) | also measured
1 | COc1cc(Cl)ccc1Oc1ccc(C)cc1CC(=O)O | 23 | 0.7 | –
2 | Cc1ccc(Oc2ccc(CC(C)C)cc2Cl)c(CC(=O)O)c1 | 19 | 0.2 | –
3 | Cc1ccc(Oc2ccc(Cl)c(Cl)c2)c(CC(=O)O)c1 | 9 | – | –
4 | CCCCCc1ccc(Oc2ccc(C)cc2CC(=O)O)c(Cl)c1 | 23 | 0.3 | –
5 | Cc1ccc(Oc2ccc(C)cc2CC(=O)O)c(Cl)c1 | 35 | 0.4 | –
6 | Cc1cc(Oc2ccc(Cl)cc2CC(=O)O)cc(C)c1Cl | 23 | – | –
7 | CCCCCCCCc1ccc(Oc2ccc(C)cc2CC(=O)O)c(Cl)c1 | 13% | – | –
8 | COc1cccc(Oc2ccc(C)cc2CC(=O)O)c1 | – | – | Reduction (Rattus norvegicus [3]): 10
9 | CCc1cc(Cl)ccc1Oc1ccc(C)cc1CC(=O)O | 17 | 0.4 | –
10 | Cc1ccc(Oc2ccc(Cl)cc2)c(CC(=O)O)c1 | 9 | 0.7 | –
11 | O=C(O)Cc1cc(Cl)ccc1Oc1ccc(O)cc1Cl | 36 | – | –
12 | COc1ccc(Oc2ccc(Cl)cc2CC(=O)O)c(Cl)c1 | 18 | – | –
13 | OCCc1ccccc1Oc1ccc(Cl)cc1Cl | 32 | 0.7 | –
14 | CCCCCCc1ccc(Oc2ccc(C)cc2CC(=O)O)c(Cl)c1 | 5 | – | –
15 | O=C(O)Cc1ccccc1Oc1ccc([N+](=O)[O-])cc1[N+](=O)[O-] | 0% | – | –
16 | Cc1ccc(Oc2ccccc2F)c(CC(=O)O)c1 | 24 | – | –
17 | O=C(O)Cc1cc(Cl)ccc1Oc1ccccc1F | 21 | – | –
18 | O=C(O)Cc1ccccc1Oc1ccc(Br)cc1Br | 29 | 0.8 | –
19 | O=C(O)Cc1ccccc1Oc1ccc(Cl)c(Cl)c1 | 20 | – | –
20 | CCCCCCCCCCc1ccc(Oc2ccc(C)cc2CC(=O)O)c(Cl)c1 | 9% | – | –
21 | CCCCc1ccc(Oc2ccc(C)cc2CC(=O)O)c(Cl)c1 | 25 | 0.9 | –
22 | NC(=O)Cc1ccccc1Oc1ccc(Cl)cc1Cl | 33 | 1.3 | –

Row | SMILES | Reduction (Rattus norvegicus [1]) | Relative potency (Rattus norvegicus [2]) | also measured
23 | O=C(O)C(=O)c1ccccc1Oc1ccc(Cl)cc1Cl | 23 | 0.3 | –
24 | Cc1ccc(Oc2cc(O)c(C)cc2CC(=O)O)c(Cl)c1 | 12 | – | –
25 | Cc1ccc(Oc2cc(C)c(C)cc2CC(=O)O)c(Cl)c1 | – | – | Reduction (Rattus norvegicus [4]): 14
26 | Cc1ccc(Oc2ccccc2C(F)(F)F)c(CC(=O)O)c1 | 0 | – | –
27 | CC(C(=O)O)c1ccccc1Oc1ccc(Cl)cc1Cl (configuration not stated) | 0 | – | –
28 | Cc1cc(Oc2ccc(Cl)cc2CC(=O)O)c(Cl)cc1Cl | 40 | 0.6 | –
29 | CCc1ccc(Oc2ccc(C)cc2CC(=O)O)c(Cl)c1 | 40 | 1.1 | MUD (Rattus norvegicus [5]): >800 mg/kg
30 | Cc1ccc(Oc2c(Cl)cccc2Cl)c(CC(=O)O)c1 | 16 | – | –
31 | Cc1ccc(Oc2ccc(Cl)cc2Cl)c(CC(=O)O)c1 | 29 | 0.8 | –
32 | CCC(C)c1ccc(Oc2ccc(C)cc2CC(=O)O)c(Cl)c1 (configuration not stated) | 42 | 3 | MUD (Rattus norvegicus [6]): 800 mg/kg
33 | O=C(O)Cc1ccccc1Oc1ccc(Cl)cc1 | 0 | – | –
34 | Nc1ccc(Oc2ccccc2CC(=O)O)c(N)c1 | 0% | – | –
35 | Cc1ccc(Oc2cc(C)c(Cl)cc2C)c(CC(=O)O)c1 | 10 | – | –
36 | Cc1ccc(Oc2ccc(Cl)cc2O)c(CC(=O)O)c1 | 26 | – | –
37 | Cc1ccc(Oc2cc(Cl)ccc2C)c(CC(=O)O)c1 | 15 | 0.2 | –
38 | Cc1ccc(Oc2ccc(Cl)cc2C)c(CC(=O)O)c1 | 17 | – | –
39 | COc1ccccc1Oc1ccccc1CC(=O)O | 38 | 0.7 | –
40 | CCCCc1ccc(Cl)c(Oc2ccc(C)cc2CC(=O)O)c1 | 5 | – | –
41 | O=C(O)Cc1ccccc1Oc1c(Cl)cc(Cl)cc1Cl | 23 | – | –
42 | O=C(O)Cc1ccccc1Oc1cccc(Cl)c1Cl | 51 | – | –
43 | Cc1ccc(Oc2ccc(Cl)cc2CC(=O)O)c(C)c1 | 22 | – | –
44 | Cc1ccc(Oc2cc(C)c(Cl)c(C)c2Cl)c(CC(=O)O)c1 | 20 | – | –

Row | SMILES | Reduction (Rattus norvegicus [1]) | Relative potency (Rattus norvegicus [2]) | also measured
45 | Cc1ccc(Oc2cc(Cl)ccc2Cl)c(CC(=O)O)c1 | 32 | 0.4 | –
46 | Nc1ccc(Oc2ccc(Cl)cc2Cl)c(CC(=O)O)c1 | 0 | – | –
47 | O=C(O)Cc1cc(Cl)ccc1Oc1cccc(Cl)c1 | 0 | – | –
48 | O=C(O)Cc1ccccc1Oc1ccccc1C(F)(F)F | 0 | – | –
49 | O=C(O)Cc1ccccc1Oc1cc(Cl)c(Cl)cc1Cl | 17 | – | –
50 | Cc1ccc(Oc2c(C)cc(Cl)cc2C)c(CC(=O)O)c1 | 14 | 0.3 | –
51 | Cc1ccc(Oc2ccccc2CC(=O)O)c(Cl)c1 | 21 | – | –
52 | O=C(O)c1ccccc1Oc1ccc(Cl)cc1Cl | 18 | – | –
53 | Cc1ccc(Oc2ccc(-c3ccccc3)cc2Cl)c(CC(=O)O)c1 | 23 | 0.2 | –
54 | CCCc1ccc(Oc2ccc(C)cc2CC(=O)O)c(Cl)c1 | 27 | 0.6 | –
55 | Cc1ccc(Oc2ccc(C(C)C)cc2Cl)c(CC(=O)O)c1 | 30 | 1.6 | –
56 | Cc1ccc(Oc2ccccc2Cl)c(CC(=O)O)c1 | 12 | – | –
57 | Cc1ccc(Oc2ccc(C)cc2CC(=O)O)c(C)c1 | 20 | – | –
58 | Cc1ccc(Oc2cc(C)c(Cl)cc2Cl)c(CC(=O)O)c1 | 45 | 0.4 | –
59 | Cc1cc(Oc2ccccc2CC(=O)O)c(Cl)cc1Cl | 19 | – | –
60 | CCc1ccc(Oc2ccc(C)cc2CC(=O)O)c(CC)c1 | 8 | – | –
61 | CCCCCCCCCCCc1ccc(Oc2ccc(C)cc2CC(=O)O)c(Cl)c1 | 14% | – | –
62 | O=C(O)Cc1ccccc1Oc1ccccc1 | 0 | – | –
63 | Cc1ccc(Oc2cccc(Cl)c2C)c(CC(=O)O)c1 | 20 | 0.3 | –
64 | Cc1ccc(Oc2cccc(Cl)c2Cl)c(CC(=O)O)c1 | 13 | – | –
65 | CCc1ccc(Oc2ccccc2CC(=O)O)c(Cl)c1 | 32 | 0.7 | –
66 | Cc1ccc(Oc2ccc(Cl)c(C)c2)c(CC(=O)O)c1 | 9 | – | –

Row | SMILES | Reduction (Rattus norvegicus [1]) | Relative potency (Rattus norvegicus [2]) | also measured
67 | Cc1ccc(Oc2cc(C)c(Cl)cc2C(C)C)c(CC(=O)O)c1 | 3 | – | –
68 | O=C(O)Cc1cc(Cl)ccc1Oc1ccccc1Cl | 0 | – | –
69 | Cc1ccc(Oc2cc(C)cc(C)c2C)c(CC(=O)O)c1 | 11 | 0.1 | –
70 | Cc1cc(Oc2ccc(Cl)cc2CC(=O)O)c(Cl)c(C)c1Cl | 41 | 1 | –
71 | Cc1ccc(Oc2cc(C(F)(F)F)cc(C(F)(F)F)c2)c(CC(=O)O)c1 | – | – | Reduction (Rattus norvegicus [3]): 10
72 | Cc1ccc(Oc2cc(C)c(Cl)cc2CC(=O)O)c(Cl)c1 | – | – | Reduction (Rattus norvegicus [4]): 14
73 | O=C(O)Cc1cc([N+](=O)[O-])ccc1Oc1ccc(Cl)cc1Cl | 9% | – | –
74 | O=C(O)Cc1cc(Cl)ccc1Oc1ccccc1 | 0 | – | –
75 | COc1ccc(Oc2ccc(Cl)cc2Cl)c(CC(=O)O)c1 | 3 | – | –
76 | O=C(O)Cc1cc(Cl)ccc1Oc1ccc(Cl)cc1Cl | 37 | 1 | –
77 | Cc1cc(Cl)ccc1Oc1ccc(Cl)cc1CC(=O)O | 7 | – | –
78 | COc1ccc(CC(=O)O)c(Oc2ccc(C)cc2Cl)c1 | – | – | Reduction (Rattus norvegicus [4]): 14
79 | Cc1ccc(Oc2ccc(Cl)cc2CC(=O)O)c(Cl)c1 | 10 | – | –
80 | Cc1ccc(Oc2c(C)cc(Cl)cc2Cl)c(CC(=O)O)c1 | 23 | 0.3 | –
81 | O=C(O)Cc1ccc(Oc2ccc(Cl)cc2Cl)cc1 | 2 | – | –
82 | Cc1ccc(Oc2cc(C)c(Cl)c(C)c2)c(CC(=O)O)c1 | 5 | 0.7 | –
83 | Cc1cc(Cl)c(Oc2ccc(Cl)cc2CC(=O)O)cc1C | 22 | – | –
84 | O=C(O)Cc1cc([N+](=O)[O-])c([N+](=O)[O-])cc1Oc1ccc(Cl)cc1Cl | 8% | – | –
85 | CCCCCCCCCc1ccc(Oc2ccc(C)cc2CC(=O)O)c(Cl)c1 | 8% | – | –
86 | CCCCOc1ccc(CC(=O)O)c(Oc2ccc(C)cc2Cl)c1 | 0 | – | –
87 | Cc1ccc(Oc2ccccc2CC(=O)O)c(C)c1 | 20 | – | –
88 | Cc1cc(Oc2ccccc2CC(=O)O)c(Cl)c(C)c1Cl | 34 | 1.2 | –

Row | SMILES | Reduction (Rattus norvegicus [1]) | Relative potency (Rattus norvegicus [2]) | also measured
89 | Cc1cc(Cl)ccc1Oc1ccccc1CC(=O)O | 0 | – | –
90 | CCCCCCCCCCCCc1ccc(Oc2ccc(C)cc2CC(=O)O)c(Cl)c1 | 26% | 0.3 | –
91 | Cc1ccc(Oc2ccc(O)cc2CC(=O)O)c(Cl)c1 | 10 | – | –
92 | Cc1ccc(Oc2cc(C(F)(F)F)ccc2Cl)c(CC(=O)O)c1 | 29 | 3 | –
93 | O=C(O)Cc1ccccc1Oc1ccc([N+](=O)[O-])cc1Cl | 19% | – | –
94 | Cc1ccc(Oc2ccc(N)cc2CC(=O)O)c(Cl)c1 | 3 | – | –
95 | O=C(O)Cc1cc(Cl)ccc1Oc1ccc(Cl)cc1 | 21 | – | –
96 | Cc1ccc(Oc2c(C)cccc2Cl)c(CC(=O)O)c1 | 26 | 0.5 | –
97 | CCOC(=O)Cc1ccccc1Oc1ccc(Cl)cc1Cl | 34 | 0.5 | –
98 | O=C(O)Cc1ccccc1Oc1c(Cl)cccc1Cl | 20 | – | –
99 | CN(C)c1ccc(Oc2ccc(Cl)cc2Cl)c(CC(=O)O)c1 | 5 | – | –
100 | O=C(O)Cc1ccccc1Oc1cc(Cl)ccc1Cl | 18 | – | –
101 | O=C(O)Cc1cc(Cl)ccc1Oc1cc(Cl)ccc1Cl | 40 | 1 | –
102 | Cc1ccc(Oc2cc(C)c(C)cc2Cl)c(CC(=O)O)c1 | 46 | 0.4 | –
103 | Cc1ccc(Oc2ccc(C(F)(F)F)cc2CC(=O)O)c(Cl)c1 | 0 | – | –
104 | O=C(O)CCc1ccccc1Oc1ccc(Cl)cc1Cl | 0 | – | –
105 | O=C(O)Cc1ccccc1Oc1ccc(Cl)cc1[N+](=O)[O-] | 4% | – | –
106 | O=C(O)Cc1ccccc1Oc1ccc(Cl)cc1Cl [FENCLOFENAC] | 36 | 1 | MUD (Rattus norvegicus [6]): 800 mg/kg
